Results on one molecule are retold here after patent US8546377B2 (AbbVie Inc., priority 2009, dated 2013).

The test addresses T1, 5HT2C receptors (Homo sapiens, UniProt P28335).
T1 sequence (P28335 33-458): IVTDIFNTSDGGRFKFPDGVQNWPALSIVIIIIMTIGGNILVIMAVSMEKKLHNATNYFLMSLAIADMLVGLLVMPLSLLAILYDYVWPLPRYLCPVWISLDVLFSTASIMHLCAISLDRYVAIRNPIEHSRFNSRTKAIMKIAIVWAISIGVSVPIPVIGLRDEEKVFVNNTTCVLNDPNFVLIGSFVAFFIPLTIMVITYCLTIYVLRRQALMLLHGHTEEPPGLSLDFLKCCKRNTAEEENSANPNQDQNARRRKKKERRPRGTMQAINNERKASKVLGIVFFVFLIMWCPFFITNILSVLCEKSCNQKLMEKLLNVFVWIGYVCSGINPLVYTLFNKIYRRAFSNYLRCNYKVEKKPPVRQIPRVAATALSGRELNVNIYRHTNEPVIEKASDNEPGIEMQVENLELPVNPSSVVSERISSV
As to the kind of experiment: Human 5-HT2C functional assay in CHO-K1 cells (calcium flux, FLIPR). It counts as cell-based. Further details: expressed in transfected cells; host or cells: CHO-K1 cells. The settings on record: CHO-K1 cells over-expressing 5HT2C, calcium flux; read-out: EC50 (μM), 5-HT2c Agonist Activity. Put shortly: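 EC50 came from a 4-parameter logistic fit, with Emax expressed relative to serotonin, of intracellular Ca2+ rises read on FLIPR at 480/530 nm, 25° C, over 3 min. Compounds ran from 10 μM in six 1:10 steps (0.2% DMSO) on serum-starved CHO-K1 transfectants pre-loaded 60 min with Ca4 dye and probenecid.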

As for `O=C1NCC2CNCCN2c2ccc(NS(=O)(=O)c3ccccc3)cc21` (stereo not shown) [Example 48, N-(7-oxo-1,2,3,4,4a,5,6,7-octahydropyrazino[1,2-a][1,4]benzodiazepin-9-yl)benzenesulfonamide], the EC50 is more than 10 µM.
